Reference: US9896440B2, “Aryl substituted heterocyclyl sulfones” (GRÜNENTHAL GMBH, priority 2014, dated 2018)

Molecular target: T1, Human CaV2.2 channels (Homo sapiens, UniProt Q00975)
T1 construct: expressed in transfected cells; Kir2.3 also stably co-expressed
Test: Fluorescence assay for CaV2.2 channels using potassium depolarization to induce channel opening (FLIPR, Fluo 4)
Type: cell-based
Settings: 30 mM KCl assay buffer (inactivated channel state), HEK293 cells; for inhibition at 3 µM: HEK293, 3 μM test compound, read-out: Activity Category: %-Inhib (CaV2.2) @3 μM @30 mM KCl; for Activity Category: %-Inhib (CaV2.2) @3 μM @30 mM KCl: 3 μM test compound
Procedure, shortened: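 HEK293 cells stably co-expressing human CaV2.2 with α2δ and β subunits plus Kir2.3, Fluo-4 loaded; compounds preincubated 15 min at 25 °C in 1 mM or 30 mM KCl buffer (inactivated state), pH 7.4. Depolarized by KCl addition; baseline-normalized peak fluorescence (ex 480/em 535 nm) gave inhibition.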

T1 sequence (Q00975 whole entry): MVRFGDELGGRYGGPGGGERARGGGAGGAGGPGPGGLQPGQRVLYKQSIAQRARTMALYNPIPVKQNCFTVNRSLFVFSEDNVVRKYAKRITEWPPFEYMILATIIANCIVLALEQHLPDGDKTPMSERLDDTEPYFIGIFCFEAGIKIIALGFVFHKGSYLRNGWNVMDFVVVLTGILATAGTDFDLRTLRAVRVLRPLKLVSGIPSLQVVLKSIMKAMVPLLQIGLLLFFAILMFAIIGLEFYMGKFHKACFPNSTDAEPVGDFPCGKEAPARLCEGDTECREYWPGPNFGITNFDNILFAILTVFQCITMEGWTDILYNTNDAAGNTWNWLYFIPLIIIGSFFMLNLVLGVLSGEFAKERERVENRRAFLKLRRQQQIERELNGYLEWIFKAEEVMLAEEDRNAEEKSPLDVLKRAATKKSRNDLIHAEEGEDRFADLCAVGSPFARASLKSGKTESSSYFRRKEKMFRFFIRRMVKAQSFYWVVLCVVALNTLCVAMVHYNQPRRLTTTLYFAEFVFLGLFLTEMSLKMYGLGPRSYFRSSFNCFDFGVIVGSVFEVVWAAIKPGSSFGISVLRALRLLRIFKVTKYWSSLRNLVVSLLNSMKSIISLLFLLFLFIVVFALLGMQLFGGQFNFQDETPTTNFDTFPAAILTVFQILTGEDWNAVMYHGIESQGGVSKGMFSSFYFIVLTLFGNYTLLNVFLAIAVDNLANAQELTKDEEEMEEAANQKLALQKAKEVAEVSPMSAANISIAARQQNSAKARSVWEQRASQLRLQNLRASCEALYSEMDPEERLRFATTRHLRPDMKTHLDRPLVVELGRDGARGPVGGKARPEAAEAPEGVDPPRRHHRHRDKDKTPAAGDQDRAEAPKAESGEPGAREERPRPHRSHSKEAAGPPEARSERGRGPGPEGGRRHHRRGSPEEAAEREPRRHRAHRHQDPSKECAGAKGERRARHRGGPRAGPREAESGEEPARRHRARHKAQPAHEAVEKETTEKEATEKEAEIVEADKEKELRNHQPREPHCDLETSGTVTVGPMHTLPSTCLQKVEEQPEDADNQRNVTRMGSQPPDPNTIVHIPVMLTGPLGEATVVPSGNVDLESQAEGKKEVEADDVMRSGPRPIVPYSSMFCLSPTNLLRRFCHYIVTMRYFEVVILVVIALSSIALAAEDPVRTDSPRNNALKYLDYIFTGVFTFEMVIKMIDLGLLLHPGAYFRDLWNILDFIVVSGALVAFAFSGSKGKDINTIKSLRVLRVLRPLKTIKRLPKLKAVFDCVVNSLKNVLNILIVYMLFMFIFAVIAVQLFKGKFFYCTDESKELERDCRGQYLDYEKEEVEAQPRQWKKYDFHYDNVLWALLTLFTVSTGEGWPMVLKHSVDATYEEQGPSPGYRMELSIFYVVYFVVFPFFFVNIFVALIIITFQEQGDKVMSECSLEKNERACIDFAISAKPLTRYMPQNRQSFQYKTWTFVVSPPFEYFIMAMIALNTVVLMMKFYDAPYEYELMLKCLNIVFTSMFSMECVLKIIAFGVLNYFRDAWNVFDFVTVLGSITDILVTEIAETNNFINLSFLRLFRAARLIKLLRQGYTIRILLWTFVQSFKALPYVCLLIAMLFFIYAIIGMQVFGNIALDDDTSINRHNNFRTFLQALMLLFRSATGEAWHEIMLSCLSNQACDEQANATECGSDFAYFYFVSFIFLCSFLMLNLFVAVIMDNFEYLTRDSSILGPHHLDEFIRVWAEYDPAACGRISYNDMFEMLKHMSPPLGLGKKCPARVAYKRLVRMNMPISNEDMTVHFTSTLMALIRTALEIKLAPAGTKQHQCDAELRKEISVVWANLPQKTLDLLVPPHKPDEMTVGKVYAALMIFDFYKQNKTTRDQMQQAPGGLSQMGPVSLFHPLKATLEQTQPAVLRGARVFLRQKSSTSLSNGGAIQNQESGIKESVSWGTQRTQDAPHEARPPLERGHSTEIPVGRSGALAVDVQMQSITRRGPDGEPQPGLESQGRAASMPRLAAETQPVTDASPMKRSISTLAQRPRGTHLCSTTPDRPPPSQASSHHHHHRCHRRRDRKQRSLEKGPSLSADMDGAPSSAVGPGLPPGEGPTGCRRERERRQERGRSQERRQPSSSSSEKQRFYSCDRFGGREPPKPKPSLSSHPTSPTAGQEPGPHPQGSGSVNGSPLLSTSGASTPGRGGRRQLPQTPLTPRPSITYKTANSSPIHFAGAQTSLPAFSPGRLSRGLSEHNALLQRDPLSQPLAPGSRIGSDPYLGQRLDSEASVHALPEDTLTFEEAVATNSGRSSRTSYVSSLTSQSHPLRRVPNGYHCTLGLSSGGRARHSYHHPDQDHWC

Row | Compound | inhibition at 3 µM | Activity Category: %-Inhib (CaV2.2) @3 μM @30 mM KCl
1 | CC1(S(=O)(=O)c2cccc(C(F)(F)F)c2)CCOC(c2ccc(C#N)cc2S(C)(=O)=O)C1 (stereo not shown) [SC-251, 3-Methylsulfonyl-4-[4-methyl-4-[[3-(trifluoromethyl)phenyl]sulfonyl]-tetrahydro-pyran-2-yl]-benzonitrile] | > 95% | 
2 | CC1(S(=O)(=O)c2cccc(C(F)(F)F)c2)CCOC(c2ccc(C#N)cc2S(C)(=O)=O)C1 (stereo not shown) [SC-252, 3-Methylsulfonyl-4-[4-methyl-4-[[3-(trifluoromethyl)phenyl]sulfonyl]-tetrahydro-pyran-2-yl]-benzonitrile] |  | B (%-Inhibition >75% up to ≦95%)
3 | Cc1cc(S(C)(=O)=O)ccc1C1CC(C)(S(=O)(=O)c2cccc(C(F)(F)F)c2)CCO1 (stereo not shown) [SC-253, 4-Methyl-2-(2-methyl-4-methylsulfonyl-phenyl)-4-[[3-(trifluoromethyl)phenyl]sulfonyl]-tetrahydro-pyran] | 75 to 95% | 
4 | Cc1cc(S(C)(=O)=O)ccc1C1CC(C)(S(=O)(=O)c2cccc(C(F)(F)F)c2)CCO1 (stereo not shown) [SC-254, 4-Methyl-2-(2-methyl-4-methylsulfonyl-phenyl)-4-[[3-(trifluoromethyl)phenyl]sulfonyl]-tetrahydro-pyran] |  | A (%-Inhibition >95%)
5 | CC1(S(=O)(=O)c2cccc(C(F)(F)F)c2)CCOC(c2ccc(S(C)(=O)=O)cc2C(F)(F)F)C1 (stereo not shown) [SC-255, 4-Methyl-2-[4-methylsulfonyl-2-(trifluoromethyl)-phenyl]-4-[[3-(trifluoromethyl)phenyl]sulfonyl]-tetrahydro-pyran] | > 95% | 
6 | CC1(S(=O)(=O)c2cccc(C(F)(F)F)c2)CCOC(c2cc(C#N)cc(S(C)(=O)=O)c2)C1 (stereo not shown) [SC-257, 3-Methylsulfonyl-5-[4-methyl-4-[[3-(trifluoromethyl)phenyl]sulfonyl]-tetrahydro-pyran-2-yl]-benzonitrile] | 75 to 95% | 
7 | CC1(S(=O)(=O)c2cccc(C(F)(F)F)c2)CCOC(c2ccc3c(c2)OC(F)(F)O3)C1 (stereo not shown) [SC-259, 2,2-Difluoro-5-[4-methyl-4-[[3-(trifluoromethyl)phenyl]sulfonyl]-tetrahydro-pyran-2-yl]-1,3-benzodioxole] | > 95% | 
8 | CC1(S(=O)(=O)c2cccc(C(F)(F)F)c2)CCOC(c2ccc(C#N)c(S(C)(=O)=O)c2)C1 (stereo not shown) [SC-261, 2-Methylsulfonyl-4-[4-methyl-4-[[3-(trifluoromethyl)phenyl]sulfonyl]-tetrahydro-pyran-2-yl]-benzonitrile] | > 95% | 
9 | CC1(S(=O)(=O)c2cccc(C(F)(F)F)c2)CCOC(c2ccc(C#N)c(S(C)(=O)=O)c2)C1 (stereo not shown) [SC-262, 2-Methylsulfonyl-4-[4-methyl-4-[[3-(trifluoromethyl)phenyl]sulfonyl]-tetrahydro-pyran-2-yl]-benzonitrile] |  | B (%-Inhibition >75% up to ≦95%)
10 | CC1(S(=O)(=O)c2cccc(C(F)(F)F)c2)CCOC(c2ccc3c(c2)CCO3)C1 (stereo not shown) [SC-263, 5-[4-Methyl-4-[[3-(trifluoromethyl)phenyl]sulfonyl]-tetrahydro-pyran-2-yl]-2,3-dihydro-benzofuran] | > 95% | 
11 | CC1(S(=O)(=O)c2cccc(OC(F)(F)F)c2)CCOC(c2ccc(S(C)(=O)=O)c(F)c2)C1 (stereo not shown) [SC-265, 2-(3-Fluoro-4-methylsulfonyl-phenyl)-4-methyl-4-[[3-(trifluoromethyloxy)-phenyl]sulfonyl]-tetrahydro-pyran] | 75 to 95% | 
12 | CC1(S(=O)(=O)c2cccc(OC(F)(F)F)c2)CCOC(c2ccc(S(C)(=O)=O)c(F)c2)C1 (stereo not shown) [SC-266, 2-(3-Fluoro-4-methylsulfonyl-phenyl)-4-methyl-4-[[3-(trifluoromethyloxy)-phenyl]sulfonyl]-tetrahydro-pyran] |  | A (%-Inhibition >95%)
13 | CC1(S(=O)(=O)c2cccc(C(F)(F)F)c2)CCOC(c2ccc(S(C)(=O)=O)c(C#N)c2)C1 (stereo not shown) [SC-267, 2-Methylsulfonyl-5-[4-methyl-4-[[3-(trifluoromethyl)phenyl]sulfonyl]-tetrahydro-pyran-2-yl]-benzonitrile] | > 95% | 
14 | CC1(S(=O)(=O)c2cccc(C(F)(F)F)c2)CCOC(c2ccc(S(C)(=O)=O)c(C#N)c2)C1 (stereo not shown) [SC-268, 2-Methylsulfonyl-5-[4-methyl-4-[[3-(trifluoromethyl)phenyl]sulfonyl]-tetrahydro-pyran-2-yl]-benzonitrile] |  | B (%-Inhibition >75% up to ≦95%)
15 | CC1(S(=O)(=O)c2cccc(C(F)F)c2)CCOC(c2ccc(S(C)(=O)=O)c(F)c2)C1 (stereo not shown) [SC-269, 4-[[3-(Difluoro-methyl)-phenyl]sulfonyl]-2-(3-fluoro-4-methylsulfonyl-phenyl)-4-methyl-tetrahydro-pyran] |  | C (%-Inhibition >40% up to ≦75%)
16 | CC1(S(=O)(=O)c2cccc(C(F)F)c2)CCOC(c2ccc(S(C)(=O)=O)c(F)c2)C1 (stereo not shown) [SC-270, 4-[[3-(Difluoro-methyl)-phenyl]sulfonyl]-2-(3-fluoro-4-methylsulfonyl-phenyl)-4-methyl-tetrahydro-pyran] |  | B (%-Inhibition >75% up to ≦95%)

Row | Compound | inhibition at 3 µM | Activity Category: %-Inhib (CaV2.2) @3 μM @30 mM KCl
17 | CC(C)c1cccc(S(=O)(=O)C2(C)CCOC(c3ccc(S(C)(=O)=O)c(F)c3)C2)c1 (stereo not shown) [SC-271, 2-(3-Fluoro-4-methylsulfonyl-phenyl)-4-[(3-isopropyl-phenyl)sulfonyl]-4-methyl-tetrahydro-pyran] | > 95% | 
18 | CC1(S(=O)(=O)c2cccc(C(F)(F)F)c2)CCOC(c2cc(S(C)(=O)=O)ccc2C#N)C1 (stereo not shown) [SC-273, 4-Methylsulfonyl-2-[4-methyl-4-[[3-(trifluoromethyl)phenyl]sulfonyl]-tetrahydro-pyran-2-yl]-benzonitrile] | 75 to 95% | 
19 | CC1(S(=O)(=O)c2cccc(C(F)(F)F)c2)CCOC(c2ccc(S(C)(=O)=O)cc2C#N)C1 (stereo not shown) [SC-275, 5-Methylsulfonyl-2-[4-methyl-4-[[3-(trifluoromethyl)phenyl]sulfonyl]-tetrahydro-pyran-2-yl]-benzonitrile] | 75 to 95% | 
20 | CC1(S(=O)(=O)c2cccc(C(F)(F)F)c2)CCOC(c2ccc(S(C)(=O)=O)cc2C#N)C1 (stereo not shown) [SC-276, 5-Methylsulfonyl-2-[4-methyl-4-[[3-(trifluoromethyl)phenyl]sulfonyl]-tetrahydro-pyran-2-yl]-benzonitrile] |  | A (%-Inhibition >95%)
21 | CC1(S(=O)(=O)c2cccc(C(F)(F)F)c2)CCOC(c2cc(S(C)(=O)=O)ccc2C2CC2)C1 (stereo not shown) [SC-277, 2-(2-Cyclopropyl-5-methylsulfonyl-phenyl)-4-methyl-4-[[3-(trifluoromethyl)phenyl]sulfonyl]-tetrahydro-pyran] | > 95% | 
22 | CC1(S(=O)(=O)c2cccc(C(F)(F)F)c2)CCOC(c2cc(S(C)(=O)=O)ccc2C2CC2)C1 (stereo not shown) [SC-278, 2-(2-Cyclopropyl-5-methylsulfonyl-phenyl)-4-methyl-4-[[3-(trifluoromethyl)phenyl]sulfonyl]-tetrahydro-pyran] |  | B (%-Inhibition >75% up to ≦95%)
23 | Cc1nc2cc(C3CC(C)(S(=O)(=O)c4cccc(C(F)(F)F)c4)CCO3)ccc2o1 (stereo not shown) [SC-279, 2-Methyl-5-[4-methyl-4-[[3-(trifluoromethyl)phenyl]sulfonyl]-tetrahydro-pyran-2-yl]-benzooxazole] | 75 to 95% | 
24 | Cc1nc2cc(C3CC(C)(S(=O)(=O)c4cccc(C(F)(F)F)c4)CCO3)ccc2o1 (stereo not shown) [SC-280, 2-Methyl-5-[4-methyl-4-[[3-(trifluoromethyl)phenyl]sulfonyl]-tetrahydro-pyran-2-yl]-benzooxazole] |  | A (%-Inhibition >95%)
25 | C[S+]([O-])c1ccc(C2CC(C)(S(=O)(=O)c3cccc(C(F)(F)F)c3)CCO2)c(F)c1 (stereo not shown) [SC-281, 2-[2-Fluoro-4-(methylsulfinyl)-phenyl]-4-methyl-4-[[3-(trifluoromethyl)phenyl]sulfonyl]-tetrahydro-pyran] |  | B (%-Inhibition >75% up to ≦95%)
26 | C[S+]([O-])c1ccc(C2CC(C)(S(=O)(=O)c3cccc(C(F)(F)F)c3)CCO2)c(F)c1 (stereo not shown) [SC-282, 2-[2-Fluoro-4-(methylsulfinyl)-phenyl]-4-methyl-4-[[3-(trifluoromethyl)phenyl]sulfonyl]-tetrahydro-pyran] |  | B (%-Inhibition >75% up to ≦95%)
27 | C[S+]([O-])c1ccc(C2CC(C)(S(=O)(=O)c3cccc(C(F)(F)F)c3)CCO2)c(F)c1 (stereo not shown) [SC-283, 2-[2-Fluoro-4-(methylsulfinyl)-phenyl]-4-methyl-4-[[3-(trifluoromethyl)phenyl]sulfonyl]-tetrahydro-pyran] |  | B (%-Inhibition >75% up to ≦95%)
28 | C[S+]([O-])c1ccc(C2CC(C)(S(=O)(=O)c3cccc(C(F)(F)F)c3)CCO2)c(F)c1 (stereo not shown) [SC-284, 2-[2-Fluoro-4-(methylsulfinyl)-phenyl]-4-methyl-4-[[3-(trifluoromethyl)phenyl]sulfonyl]-tetrahydro-pyran] |  | C (%-Inhibition >40% up to ≦75%)
29 | CCc1nc2cc(C3CC(C)(S(=O)(=O)c4cccc(C(F)(F)F)c4)CCO3)ccc2o1 (stereo not shown) [SC-285, 2-Ethyl-5-[4-methyl-4-[[3-(trifluoromethyl)phenyl]sulfonyl]-tetrahydro-pyran-2-yl]-benzooxazole] | 75 to 95% | 
30 | CC1(S(=O)(=O)c2cccc(C(F)(F)F)c2)CCOC(c2ccc(S(=O)(=O)CCO)cc2)C1 (stereo not shown) [SC-286, 2-[[4-[4-Methyl-4-[[3-(trifluoromethyl)phenyl]sulfonyl]-tetrahydro-pyran-2-yl]-phenyl]sulfonyl]-ethanol] | 75 to 95% | 
31 | C[S+]([O-])c1cc(Cl)ccc1C1CC(C)(S(=O)(=O)c2cccc(C(F)(F)F)c2)CCO1 (stereo not shown) [SC-288, 2-[4-Chloro-2-(methylsulfinyl)-phenyl]-4-methyl-4-[[3-(trifluoromethyl)phenyl]sulfonyl]-tetrahydro-pyran] |  | B (%-Inhibition >75% up to ≦95%)
